From patent publication US20150086509A1, “COMPOSITIONS AND METHODS FOR TREATING CANCER USING INTERFERON AND MAPK PATHWAY INHIBITOR” (The Trustees of Columbia University in the City of New York, priority 2013, published 2015)
Entries after “also recorded” stand apart in the source; their conditions may differ.

Legend:
Type in all cases: cell-based, human
high pSTAT1 cell line = experiment: Cytotoxicity of IFN by SubG1 percentage; settings: 48 hours after treatment
Description: The cytotoxicity of IFN was assessed in high pSTAT1 cell line, 48 hours after treatment using SubG1 percentage. […] Cells plated in 6 well plates, 200K cells/well, in 2 mL of growth media. […] 50K cells per well were plated in 6-well plates with 2 mL of media and treated 24 hours later. Cells were counted every 24 hours up to 72 hours. C. […] Cells were plated in 6 well plates, 200K cells/well with 2 mL media.

[1] = tested on: pSTAT1 (interferon-STAT1 pathway); experiment: Western blots of pSTAT1 levels; settings: low- and high-pSTAT1 cell lines
Description: (§1) Control samples were collected untreated at time of treatment.
(§2) Samples for protein analysis were lysed using RIPA buffer. Protein concentration was assessed using BCA staining Samples were then normalized to a fixed concentration and mixed with a 5× glycerol/SDS/DTT loading buffer. Lysates were run on gradient (4-12%) Bis-Tris gels. After incubation with horseradish peroxidase-conjugated secondary antibodies, proteins were detected using chemiluminescence.

[2] = tested on: intrinsic apoptotic pathway (cytochrome C release); experiment: Cytochrome C release from the mitochondria
Description: Cytochrome C release was assessed on fresh unfrozen pellets using Sucrose/Mannitol buffer (Majewski et al., 2004). Full details in the supplementary material.
Protocol for Cytochrome C release is taken, as is, from Majewski et al 2004. Lysis buffer: 20 mM Hepes-KOH, [pH 7.5], 210 mM sucrose, and 70 mM mannitol; 1.5 mM MgCl2, 10 mM […], protease inhibitor, and 1 mg digitonin/1 mL lysis buffer.
Cells are trypsinized, collected and spun down in 4C. They are then washed with PBS and spun down again. It is critical that cell pellets will be lysed immediately without freezing. Cells are gently suspended, without vortexing, in lysis buffer. Roughly double the cell pellet volume is used. They are incubated in 25C for 3-10 min, depending all cell line. Spun down at 4C for 20 minutes at highest speed. Supernatant contains cytoplasmic fraction.

[3] = tested on: melanoma cell lines (low- and high-pSTAT1); experiment: Apoptosis assessed by TUNEL staining 72 h after treatment; settings: PD325901 50 nM
Description: as §1
Apoptosis was assessed by TUNEL staining Cells were plated in 6-well plates at 200K cells/well. […] TUNEL was performed using Invitrogen BrdU TUNEL kit.

[4] = tested on: caspase pathway (caspases 9, 7 and 3); experiment: Cleaved caspases by Western blot; settings: MEK inhibition
Description: as §1, §2

[5] = tested on: Ma1Me3M, a BRAF-V600E cell line; experiment: Comparison of BRAF and MEK inhibition, transcriptional response (Illumina HumanHT-12 microarrays)
Description: We assessed expression fold change at 1 hour, 2, 4, and 8 hours following treatment using Illumina HumanHT-12 microarrays.
Illumina's probe pvalues were used to filter out probes. Probes with p-value>0.05 in more than half of the samples were removed. Then microarrays were normalized according to their 75% percentile values. The 2 control array were averaged, and treated samples were compared to the averaged control to assess fold change.

IFNα
cytotoxic / apoptotic effect of IFN (SubG1 percentage) (high pSTAT1 cell line): weaker cytotoxic effect than IFNβ; also recorded: dose-dependent effects

O=C(NOC[C@H](O)CO)c1ccc(F)c(F)c1Nc1ccc(I)cc1F [PD325901]
pSTAT1 levels after treatment [1]: increase in pSTAT1 levels | time of cytochrome C release after treatment ([2]; MEKi): approx. 36 hours | cytochrome C release ([2]; MEKi alone, all cell lines): activates the intrinsic apoptotic pathway by cytochrome C release | cytotoxic effect of MEK inhibition alone (TUNEL) ([3]; high-pSTAT1 cell lines): only mild response | cytotoxic effect of MEK inhibition alone (TUNEL) ([3]; high-pSTAT1 cell lines, listed as MEK inhibition): mostly resistant | cytotoxic effect of MEK inhibition alone (TUNEL) ([3]; low-pSTAT1 cell lines): sensitive | cleavage/activation of caspase 7 and 9 ([4]; high-pSTAT1 cell lines): not cleaved | cleavage/activation of caspase 7 and 9 ([4]; low pSTAT1 cell lines): cleaved and activated

CCCS(=O)(=O)Nc1ccc(F)c(C(=O)c2c[nH]c3ncc(Cl)cc23)c1F [PLX4720]
transcriptional response compared with the MEK inhibitor PD325901 ([5]; 2 uM PLX4720 vs 50 nM PD325901, BRAF-V600E cell line): almost identical transcriptional response | difference in gene expression fold change between MEKi and BRAFi treatments ([5]; Ma1Me3M, all time points (1, 2, 4, 8 hours)): ≤ 0.5 fold (on a log 2 scale)
